Experimental data from paper PMC11755407, “Advancements in drug discovery: integrating CADD tools and drug repurposing for PD-1/PD-L1 axis inhibition” (RSC Advances, 2025).
pIC50: −log10 of the molar value.

Legend:
PD-L1 [1] = target: T1, PD-L1 (Homo sapiens, UniProt Q9NZQ7); test: competitive ELISA of PD-1Fc binding to immobilized PD-L1; also partial competition with anti-PD-L1 mAb MIH1 on MDA-MB-231 cells (flow cytometry)
T1 construct: gene CD274; purified recombinant monomeric human PD-L1His (produced in plants); with PD-1 (PD-1Fc chimera)

PD-L1 [2] = target: T1, PD-L1; test: competitive ELISA of PD-1Fc binding to immobilized PD-L1

T1 sequence (Q9NZQ7 19-238 limits assumed): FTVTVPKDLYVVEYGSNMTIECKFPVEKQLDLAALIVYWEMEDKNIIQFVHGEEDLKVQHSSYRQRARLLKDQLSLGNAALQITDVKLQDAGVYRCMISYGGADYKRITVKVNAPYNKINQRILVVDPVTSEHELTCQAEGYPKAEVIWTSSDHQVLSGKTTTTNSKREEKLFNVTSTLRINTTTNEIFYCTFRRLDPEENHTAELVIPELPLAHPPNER
T1 sequence (Q15116 25-288 partner): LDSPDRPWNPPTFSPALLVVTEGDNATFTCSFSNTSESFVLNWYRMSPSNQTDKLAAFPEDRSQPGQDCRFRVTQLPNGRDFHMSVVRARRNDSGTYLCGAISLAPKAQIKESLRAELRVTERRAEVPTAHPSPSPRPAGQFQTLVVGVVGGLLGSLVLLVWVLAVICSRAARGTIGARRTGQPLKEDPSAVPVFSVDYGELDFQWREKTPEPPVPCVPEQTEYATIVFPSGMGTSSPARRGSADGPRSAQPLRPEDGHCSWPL

Row | Compound | pIC50 (PD-L1 [1]) | pIC50 (PD-L1 [2])
1 | PDI-1 | 5.26 | 
2 | Cc1c(C(=O)Nc2ccc(N3C[C@@H](C)O[C@@H](C)C3)nc2)cccc1-c1ccc(OC(F)(F)F)cc1 [compound 28, sonidegib] |  | 3.32
